{
  "source": "paper PMC2851405",
  "about": "(Biochemistry, 2010)",
  "target": "HPAO-1 (Ogataea angusta, UniProt P12807)",
  "sequence (P12807 whole entry)": "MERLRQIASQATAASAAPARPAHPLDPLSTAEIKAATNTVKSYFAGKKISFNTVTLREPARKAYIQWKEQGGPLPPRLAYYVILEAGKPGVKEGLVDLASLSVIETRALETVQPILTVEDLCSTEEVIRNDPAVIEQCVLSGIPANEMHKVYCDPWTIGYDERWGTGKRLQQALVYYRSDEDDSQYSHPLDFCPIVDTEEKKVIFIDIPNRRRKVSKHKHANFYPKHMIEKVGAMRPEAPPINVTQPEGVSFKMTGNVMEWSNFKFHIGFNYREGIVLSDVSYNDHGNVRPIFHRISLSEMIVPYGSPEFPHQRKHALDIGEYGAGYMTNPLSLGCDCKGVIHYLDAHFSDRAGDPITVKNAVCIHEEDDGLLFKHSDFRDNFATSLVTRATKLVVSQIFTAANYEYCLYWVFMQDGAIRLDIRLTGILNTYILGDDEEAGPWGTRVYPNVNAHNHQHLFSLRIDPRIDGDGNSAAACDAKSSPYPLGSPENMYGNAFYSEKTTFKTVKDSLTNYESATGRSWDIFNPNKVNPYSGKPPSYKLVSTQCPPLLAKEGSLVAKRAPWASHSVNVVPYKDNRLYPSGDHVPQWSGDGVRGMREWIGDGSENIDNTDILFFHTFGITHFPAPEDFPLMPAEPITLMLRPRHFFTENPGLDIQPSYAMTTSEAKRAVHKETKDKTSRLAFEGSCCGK",
  "experiment": "phenylhydrazone formation, absorbance",
  "type": "binding",
  "conditions": "covalent; adduct with TPQ cofactor",
  "data": [
    {"smiles": "NNc1ccccc1", "note": "[phenylhydrazine]", "values": [
      {"measurement": "rate of phenylhydrazone formation", "value": "0.0078 ± 0.0007", "unit": "s⁻¹"}
    ]}
  ]
}
